Assays:
Type in all cases: cell-based
Bacillus cereus = assay: agar plate disc-diffusion, antibacterial, Bacillus cereus; conditions: nutrient agar, 37° C., 48 h
Description: (§1) The agar plate disc-diffusion method was applied. […] The discs were then placed onto the surface of agar plates (nutrient agar for bacteria and Sabouraud's dextrose agar for fungi) seeded with the test organism. Each plate contained 15 mL of the agar medium, previously seeded with 0.2 mL of the broth culture of each organism pregrown for 18 h. The plates were incubated at 37° C. for 48 h, and 72 h for fungi. The inhibition zones was measured in mm. Discs impregnated with DMSO were used as a control, and its inhibition zone was subtracted from the tested compound actual inhibition zone.

Staphylococcus aureus = assay: agar plate disc-diffusion, antibacterial, Staphylococcus aureus; conditions: nutrient agar, 37° C., 48 h
Description: as §1

Pseudomonas aeruginosa = assay: agar plate disc-diffusion, antibacterial, Pseudomonas aeruginosa; conditions: nutrient agar, 37° C., 48 h
Description: as §1

Escherichia coli = assay: agar plate disc-diffusion, antibacterial, Escherichia coli; conditions: nutrient agar, 37° C., 48 h
Description: as §1

Aspergillus flavus = assay: agar plate disc-diffusion, antifungal, Aspergillus flavus; conditions: Sabouraud's dextrose agar, 37° C., 72 h
Description: as §1

[1] = tested on: Chrysosporium keratinophilum; assay: agar plate disc-diffusion, antifungal, Chrysosporium keratinophilum; conditions: Sabouraud's dextrose agar, 37° C., 72 h
Description: as §1

[2] = A = concentration of comp. = 10,000 μL
[3] = B = concentration of comp. = 30,000 μL
[4] = C = concentration of comp. = 50,000 μL

## O=C(O)CCn1c(-c2ccc(Cl)cc2)nc(-c2ccc(Br)cc2)c1-c1ccc(Br)cc1 [V, 3-(4,5-bis(4-bromophenyl)-2-(4-chlorophenyl)-1H-imidazol-1-yl)propanoic acid]
Bacillus cereus; [2]
  inhibition zone, Bacillus Cereus, A: 19 mm
Bacillus cereus; [3]
  inhibition zone, Bacillus Cereus, B: 21 mm
Bacillus cereus; [4]
  inhibition zone, Bacillus Cereus, C: 29 mm
Staphylococcus aureus; [2]
  inhibition zone, Staphylococcus aureus, A: 17 mm
Staphylococcus aureus; [3]
  inhibition zone, Staphylococcus aureus, B: 19 mm
Staphylococcus aureus; [4]
  inhibition zone, Staphylococcus aureus, C: 26 mm
Pseudomonas aeruginosa; [2]
  inhibition zone, Pseudomonas aeruginosa, A: 25 mm
Pseudomonas aeruginosa; [3]
  inhibition zone, Pseudomonas aeruginosa, B: 27 mm
Pseudomonas aeruginosa; [4]
  inhibition zone, Pseudomonas aeruginosa, C: 41 mm
Escherichia coli; [2]
  inhibition zone, Escherichia coli, A: 28 mm
Escherichia coli; [3]
  inhibition zone, Escherichia coli, B: 37 mm
Escherichia coli; [4]
  inhibition zone, Escherichia coli, C: 51 mm
Aspergillus flavus; [2]
  inhibition zone, Aspergillus flavus, A: 23 mm
Aspergillus flavus; [3]
  inhibition zone, Aspergillus flavus, B: 27 mm
Aspergillus flavus; [4]
  inhibition zone, Aspergillus flavus, C: 36 mm
[1]; [2]
  inhibition zone, Chrysosporium keratinophilum, A: 24 mm
[1]; [3]
  inhibition zone, Chrysosporium keratinophilum, B: 26 mm
[1]; [4]
  inhibition zone, Chrysosporium keratinophilum, C: 47 mm

— patent US12172967B1, “3-(4,5-bis(4-bromophenyl)-2-(4-chlorophenyl)-1H-imidazol-1-yl)propanoic acid as an antimicrobial compound” (KING FAISAL UNIVERSITY, priority 2023, dated 2024)
